From publication PMC10447463, “Data-mining unveils structure–property–activity correlation of viral infectivity enhancing self-assembling peptides” (Nature Communications, 2023)
Like-named read-outs stand apart in the source and are kept apart here.

Key:
[1] = assay type: physicochemical; details: for ThT Cat. / ThT-Fluorescence (categorical): ThT-active if fluorescence at least twice the control
Method in brief: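 Preformed peptide fibrils (1 mg/mL) mixed with 50 µM ThT in PBS, 15 min at RT, fluorescence ex 440/em 488 nm versus PBS blank, triplicates. Zeta potential: peptides at 1 mg/mL in PBS pH 7.4, aged 1 d at RT, diluted in 1 mM KCl, Smoluchowski from electrophoretic mobility.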

[2] = Zeta-potential measurement; assay type: physicochemical; details: for Zeta-pot. / mV: zeta potential of peptide, Fig S15 source data; for Zeta pot. / mV: 1 mg/mL in PBS pH 7.4 from 10 mg/mL DMSO stock, 1 d RT, 60 µL diluted in 600 µL 1 mM KCl, Zetasizer Nano ZS, Smoluchowski, mean of triplicate
Method in brief: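 Aggregates: 1 mg/mL peptide, PBS pH 7.4, 1 d RT; dilute in KCl (1 mM, aq); measure mobility → zeta via Smoluchowski.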

[3] = ThT fluorescence relative to blank (42.1851851851852 a.u.)
[4] = relative to blank 42.1851851851852 a.u.
[5] = ThT fluorescence relative to blank, blank = 42.1851851851852

Substance | Zeta category ( +1 = if > 4 mV;-1 = if < -4 mV; 0 = -4mV to 4 mV) [2] | Zeta-pot. / mV [2] | ThT Cat. / ThT-Fluorescence (categorical) [1] | Tht category (> 1.5 to blank = +) ([1]; category 1/0) | further results
CEFEFQF [KB12] | -1 (-1 = if < -4 mV) | -13.7 mV |  |  | Tht rel to blank (42.1851851851852) [1, 3]: 2.788; Zeta Pot. / mV ([2]; mean, Std in separate column): -24.5 mV
CKFKFPF |  |  | 0 (ThT-inactive (N-Fold <2)) |  | Zeta pot. / mV [2]: -1.053 mV; Zeta-Potential / mV ([2]; mean, Figure 6C): -1.053 mV
CKIKIQIII [AR0 / F19] | 1 (+1 = if > 4 mV) | 16.2 mV |  | 1 (ThT. Cat is 1, if Rel. ThT >2) | Tht rel to blank (42.1851851851852) [1, 4]: 4.14; Zeta Pot. / mV ([2]; mean, Std in separate column): 16.2 mV
CKIKIQIRGD [psis21] |  | 7.157 mV |  |  | Tht category (> 1.5 to blank = +) ([1]; FigS26): 0 (Tht category (> 1.5 to blank = +))
CKIKIWIW |  |  | 1 (ThT. Cat is 1, if Rel. ThT >2) |  | Zeta-Potential / mV ([2]; mean, Figure 6C): 19.13 mV
CKIWIQIY |  |  | 1 (ThT. Cat is 1, if Rel. ThT >2) |  | Zeta-Potential / mV ([2]; mean, Figure 6C): 4.537 mV
CRFRFHFH |  |  | 0 (ThT-inactive (N-Fold <2)) |  | Zeta-Potential / mV ([2]; mean, Figure 6C): 19.6 mV
CRLRVGVS |  |  | 0 (ThT-inactive (N-Fold <2)) |  | Zeta pot. / mV [2]: 10.53 mV; Zeta-Potential / mV ([2]; mean, Figure 6C): 10.53 mV
CRLSLSLS |  |  | 0 (ThT-inactive (N-Fold <2)) |  | Zeta pot. / mV [2]: 8.977 mV; Zeta-Potential / mV ([2]; mean, Figure 6C): 8.977 mV
EIEIQINM [TM95 / (TM75)] | -1 (-1 = if < -4 mV) | -23.33 mV |  |  | Tht rel to blank (42.1851851851852) [1, 3]: 1.473; Zeta Pot. / mV ([2]; mean, Std in separate column): -23.33 mV
EIEIQINMWQ [VH8] | -1 (-1 = if < -4 mV) | -19.13 mV |  |  | Tht rel to blank (42.1851851851852) [1, 3]: 4.145; Zeta Pot. / mV ([2]; mean, Std in separate column): -19.13 mV
GYVIIK [reference compound] |  |  | 0 (ThT-inactive (N-Fold <2)) |  | Zeta pot. / mV [2]: 9.9 mV; Zeta-Potential / mV ([2]; mean, Figure 7B): 9.88 mV
HHHHKAKAKAKAWWWW [TM8] | 1 (+1 = if > 4 mV) | 17.4 mV |  | 1 (ThT. Cat is 1, if Rel. ThT >2) | Tht rel to blank (42.1851851851852) [1, 5]: 3.672; Zeta Pot. / mV [2]: 17.4 mV
HHHHKAKAKAKAYYYY [TM10] | 1 (+1 = if > 4 mV) | 7.03 mV |  | 0 (ThT-inactive (N-Fold <2)) | Tht rel to blank (42.1851851851852) [1, 5]: 1.39; Zeta Pot. / mV [2]: 7.03 mV
HHHHKIKIQINMYYYY [TM16] | 1 (+1 = if > 4 mV) | 7.807 mV |  | 1 (ThT. Cat is 1, if Rel. ThT >2) | Tht rel to blank (42.1851851851852) [1, 5]: 12.17; Zeta Pot. / mV [2]: 7.807 mV
HIHIQIC [CN12] | 0 (0 = -4mV to 4 mV) | -3.687 mV |  | 1 (ThT. Cat is 1, if Rel. ThT >2) | Tht rel to blank (42.1851851851852) [1, 5]: 12.46; Zeta Pot. / mV [2]: -3.687 mV
HLHLPLL [CN14] | -1 (-1 = if < -4 mV) | -9.053 mV |  | 0 (ThT-inactive (N-Fold <2)) | Tht rel to blank (42.1851851851852) [1, 5]: 1.069; Zeta Pot. / mV [2]: -9.053 mV
IFQINS [reference compound] |  |  | 1 (ThT. Cat is 1, if Rel. ThT >2) |  | Zeta pot. / mV [2]: -11.0 mV; Zeta-Potential / mV ([2]; mean, Figure 7B): -10.98 mV

Substance | Zeta category ( +1 = if > 4 mV;-1 = if < -4 mV; 0 = -4mV to 4 mV) [2] | Zeta-pot. / mV [2] | ThT Cat. / ThT-Fluorescence (categorical) [1] | Tht category (> 1.5 to blank = +) ([1]; category 1/0) | further results
IIIK [reference compound] |  |  | 0 (ThT-inactive (N-Fold <2)) |  | Zeta pot. / mV [2]: -3.8 mV; Zeta-Potential / mV ([2]; mean, Figure 7B): -3.82 mV
IIIQGK [reference compound] |  |  | 0 (ThT-inactive (N-Fold <2)) |  | Zeta pot. / mV [2]: -7.6 mV; Zeta-Potential / mV ([2]; mean, Figure 7B): -7.56 mV
IKFLSVN [reference compound] |  |  | 0 (ThT-inactive (N-Fold <2)) |  | Zeta pot. / mV [2]: 5.9 mV; Zeta-Potential / mV ([2]; mean, Figure 7B): 5.9 mV
KAKLTCT |  |  | 0 (ThT-inactive (N-Fold <2)) |  | Zeta pot. / mV [2]: -2.2992 mV; Zeta-Potential / mV ([2]; mean, Figure 6C): -2.2992 mV
KAKQAANMWQ [JG6] | -1 (-1 = if < -4 mV) | -12.9 mV |  | 0 (ThT-inactive (N-Fold <2)) | Tht rel to blank (42.1851851851852) [1, 5]: 1.208; Zeta Pot. / mV [2]: -12.9 mV
KAQCTLP |  |  | 0 (ThT-inactive (N-Fold <2)) |  | Zeta pot. / mV [2]: -8.503 mV; Zeta-Potential / mV ([2]; mean, Figure 6C): -8.503 mV
KFKFQFF [TG6] | 0 (0 = -4mV to 4 mV) | 6.903 mV |  | 1 (ThT. Cat is 1, if Rel. ThT >2) | Tht rel to blank (42.1851851851852) [1, 3]: 2.58; Tht rel to blank (42.1851851851852) [1, 5]: 2.58; Tht rel to blank (42.1851851851852) [1, 4]: 2.58
KFKFQFFF [TG12] | 1 (+1 = if > 4 mV) | 13.27 mV |  | 1 (ThT. Cat is 1, if Rel. ThT >2) | Tht rel to blank (42.1851851851852) [1, 3]: 2.58; Tht rel to blank (42.1851851851852) [1, 5]: 2.58; Tht rel to blank (42.1851851851852) [1, 4]: 2.58; Zeta Pot. / mV [2]: 13.27 mV; Zeta Pot. / mV ([2]; mean, Std in separate column): 13.27 mV
KFKFQFN [BL7] | 1 (+1 = if > 4 mV) | 12.7 mV |  | 0 (ThT-inactive (N-Fold <2)) | Tht rel to blank (42.1851851851852) [1, 4]: 1.056; Zeta Pot. / mV ([2]; mean, Std in separate column): 12.7 mV
KFKFQFNMW [BL5 / KB13] | 1 (+1 = if > 4 mV) | 22.6 mV |  | 0 (ThT-inactive (N-Fold <2)) | Tht rel to blank (42.1851851851852) [1, 4]: 1.342; Zeta Pot. / mV ([2]; mean, Std in separate column): 22.6 mV
KFKQFFINMWQ [VH14] | 1 (+1 = if > 4 mV) | 7.99 mV |  | 0 (ThT-inactive (N-Fold <2)) | Tht rel to blank (42.1851851851852) [1, 5]: 1.085; Zeta Pot. / mV [2]: 7.99 mV
KFQFNMW |  |  | 0 (ThT-inactive (N-Fold <2)) |  | Zeta-Potential / mV ([2]; mean, Figure 6C): 8.763 mV
KIKIKIKI [TM13] | 1 (+1 = if > 4 mV) | 5.46 mV |  | 1 (ThT. Cat is 1, if Rel. ThT >2) | Tht rel to blank (42.1851851851852) [1, 4]: 3.325; Zeta Pot. / mV ([2]; mean, Std in separate column): 5.46 mV
KIKIKIKIWW [TM21] | 1 (+1 = if > 4 mV) | 15.4 mV |  | 1 (ThT. Cat is 1, if Rel. ThT >2) | Tht rel to blank (42.1851851851852) [1, 4]: 3.538; Zeta Pot. / mV ([2]; mean, Std in separate column): 15.4 mV
KIKIKIKIWWWW [TM12] | 1 (+1 = if > 4 mV) | 15.2 mV |  | 1 (ThT. Cat is 1, if Rel. ThT >2) | Tht rel to blank (42.1851851851852) [1, 4]: 2.303; Zeta Pot. / mV ([2]; mean, Std in separate column): 15.2 mV
KIKIQIAMWQ [JR4] |  | 11.3 mV |  |  | Tht category (> 1.5 to blank = +) ([1]; FigS26): 1 (Tht category (> 1.5 to blank = +)); Zeta category ( +1 = if > 4 mV;-1 = if < -4 mV; 0 = -4mV to 4 mV) ([2]; FigS26): 1 (+1 = if > 4 mV)
RGDSGGGGGGKIKIQIC [TM114 / RC17] |  | 16.7 mV |  |  | 
